This note sets out measurements from ChEMBL document CHEMBL4680217, “Discovery of PROTAC BCL-X degraders as potent anticancer agents with low on-target platelet toxicity” (Eur J Med Chem, 2020).

For one experiment, the system named is MOLT-4. The experiment can be described thus: Antiproliferative activity against human MOLT-4 cells assessed as reduction in cell viability measured after 48 hrs by MTS assay. The experiment is classed as functional, cell-based. Particulars: MOLT-4, 48 h. For orientation: Tetrazolium assays rely on reduction of a dye to a coloured formazan, in cell work by metabolically active cells.

In experiment [1] the target is von Hippel-Lindau disease tumor suppressor/Apoptosis regulator Bcl-2 (Homo sapiens) (UniProt P10415+P40337). The experiment can be described thus: Protac activity at VHL/BCL2 in human MOLT-4 cells assessed as induction of BCL2 degradation at 100 nM measured after 16 hrs by immunoblotting analysis. Format: cell-based.
Chain of von Hippel-Lindau disease tumor suppressor/Apoptosis regulator Bcl-2 (Homo sapiens) (P10415 whole entry, looked up): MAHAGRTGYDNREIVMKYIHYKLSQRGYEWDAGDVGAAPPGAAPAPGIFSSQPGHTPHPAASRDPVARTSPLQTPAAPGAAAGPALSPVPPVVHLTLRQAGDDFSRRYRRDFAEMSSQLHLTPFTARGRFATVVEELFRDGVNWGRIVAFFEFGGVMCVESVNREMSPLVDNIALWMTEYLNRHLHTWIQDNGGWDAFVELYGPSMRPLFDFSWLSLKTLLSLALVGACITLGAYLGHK
Chain of von Hippel-Lindau disease tumor suppressor/Apoptosis regulator Bcl-2 (Homo sapiens) (P40337 whole entry, looked up): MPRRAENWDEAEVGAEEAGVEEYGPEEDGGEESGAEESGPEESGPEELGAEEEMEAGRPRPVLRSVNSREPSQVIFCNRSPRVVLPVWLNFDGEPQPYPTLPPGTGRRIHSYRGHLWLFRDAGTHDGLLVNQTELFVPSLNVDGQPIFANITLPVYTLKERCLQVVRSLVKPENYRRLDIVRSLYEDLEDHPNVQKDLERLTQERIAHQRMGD
Experiment [2] has as its target von Hippel-Lindau disease tumor suppressor/Bcl-2-like protein 1 (Homo sapiens, UniProt Q07817+P40337). The experiment in a line: Protac activity at VHL/BCL-XL in human MOLT-4 cells assessed as induction of BCL-XL degradation by measuring remaining BCL-XL level at 100 nM measured after 16 hrs by immunoblotting analysis relative to control. Format: cell-based.
The target in experiment [3] is Protein cereblon/Bcl-2-like protein 1 (Homo sapiens, UniProt Q07817+Q96SW2). The experiment can be described thus: Protac activity at CRBN/BCL-XL in human MOLT-4 cells assessed as induction of BCL-XL degradation by measuring remaining BCL-XL level at 50 nM measured after 16 hrs by immunoblotting analysis relative to control. The experiment is classed as cell-based. On the technique in general: A western blot detects proteins with antibodies after separation by electrophoresis.
Chain of Protein cereblon/Bcl-2-like protein 1 (Q07817 whole entry, looked up): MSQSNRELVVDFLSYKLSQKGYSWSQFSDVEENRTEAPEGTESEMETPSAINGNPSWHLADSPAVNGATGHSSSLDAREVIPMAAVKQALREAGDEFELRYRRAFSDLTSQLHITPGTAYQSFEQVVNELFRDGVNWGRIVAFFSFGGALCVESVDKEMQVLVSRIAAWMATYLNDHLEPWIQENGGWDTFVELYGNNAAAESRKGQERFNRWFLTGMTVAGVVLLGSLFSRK
Chain of Protein cereblon/Bcl-2-like protein 1 (Q96SW2 whole entry, looked up): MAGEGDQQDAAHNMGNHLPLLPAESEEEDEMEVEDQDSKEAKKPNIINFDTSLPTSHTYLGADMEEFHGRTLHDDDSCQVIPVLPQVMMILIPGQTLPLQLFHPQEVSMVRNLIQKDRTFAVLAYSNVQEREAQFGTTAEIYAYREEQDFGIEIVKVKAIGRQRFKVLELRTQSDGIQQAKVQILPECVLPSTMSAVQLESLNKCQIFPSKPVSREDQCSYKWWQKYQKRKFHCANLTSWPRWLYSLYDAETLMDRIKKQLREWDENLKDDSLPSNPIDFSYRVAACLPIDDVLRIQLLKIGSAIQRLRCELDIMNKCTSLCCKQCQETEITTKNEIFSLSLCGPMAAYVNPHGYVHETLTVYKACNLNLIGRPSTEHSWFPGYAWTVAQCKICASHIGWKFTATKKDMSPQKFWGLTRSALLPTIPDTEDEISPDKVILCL

Experiment [4] addresses Protein cereblon/Apoptosis regulator Bcl-2 (Homo sapiens) (UniProt P10415+Q96SW2). The experiment in a line: Protac activity at CRBN/BCL2 in human MOLT-4 cells assessed as induction of BCL2 degradation at 50 nM measured after 16 hrs by immunoblotting analysis. The experiment is classed as cell-based.

SMILES strings stand for the structures. The source made the active and inactive calls. No cut-off for these calls is given here.

Chain of von Hippel-Lindau disease tumor suppressor/Bcl-2-like protein 1 (P40337 whole entry, looked up): as the sequence (P40337 whole entry, looked up) above
Chain of von Hippel-Lindau disease tumor suppressor/Bcl-2-like protein 1 (Q07817 whole entry, looked up): as the sequence (Q07817 whole entry, looked up) above
Chain of Protein cereblon/Apoptosis regulator Bcl-2 (Homo sapiens) (P10415 whole entry, looked up): as the sequence (P10415 whole entry, looked up) above
Chain of Protein cereblon/Apoptosis regulator Bcl-2 (Homo sapiens) (Q96SW2 whole entry, looked up): as the sequence (Q96SW2 whole entry, looked up) above

One may read the IC50 as the concentration that inhibits the measured activity by half. With `Cc1ncsc1-c1ccc([C@H](C)NC(=O)[C@@H]2C[C@@H](O)CN2C(=O)[C@@H](NC(=O)COCCOCCN(C)CC[C@H](CSc2ccccc2)Nc2ccc(S(=O)(=O)NC(=O)c3ccc(N4CCN(CC5=C(c6ccc(Cl)cc6)CCC(C)(C)C5)CC4)cc3)cc2S(=O)(=O)C(F)(F)F)C(C)(C)C)cc1`, the IC50 with MOLT-4 was 97 nM. In addition, in experiment [1], the outcome was inactive. For the same compound, in experiment [2], the Activity amounted to 24%.
For `Cc1ncsc1-c1ccc([C@H](C)NC(=O)[C@@H]2C[C@@H](O)CN2C(=O)[C@@H](NC(=O)CCOCCOCCN2CCN(CC[C@H](CSc3ccccc3)Nc3ccc(S(=O)(=O)NC(=O)c4ccc(N5CCN(CC6=C(c7ccc(Cl)cc7)CCC(C)(C)C6)CC5)cc4)cc3S(=O)(=O)C(F)(F)F)CC2)C(C)(C)C)cc1`, in that order: 914 nM, “inactive” and 55%.
With `Cc1ncsc1-c1ccc([C@H](C)NC(=O)[C@@H]2C[C@@H](O)CN2C(=O)[C@@H](NC(=O)CCCCCCC(=O)N2CCN(CC[C@H](CSc3ccccc3)Nc3ccc(S(=O)(=O)NC(=O)c4ccc(N5CCN(CC6=C(c7ccc(Cl)cc7)CCC(C)(C)C6)CC5)cc4)cc3S(=O)(=O)C(F)(F)F)CC2)C(C)(C)C)cc1`, the IC50 in the experiment on MOLT-4 came to 108 nM. Besides, the result in experiment [1] was inactive. Moreover, in experiment [2], the Activity is 32%.
The corresponding values for `Cc1ncsc1-c1ccc([C@H](C)NC(=O)[C@@H]2C[C@@H](O)CN2C(=O)[C@@H](NC(=O)COCCCOCC(=O)N2CCN(CC[C@H](CSc3ccccc3)Nc3ccc(S(=O)(=O)NC(=O)c4ccc(N5CCN(CC6=C(c7ccc(Cl)cc7)CCC(C)(C)C6)CC5)cc4)cc3S(=O)(=O)C(F)(F)F)CC2)C(C)(C)C)cc1` are 232 nM, “inactive” and 48%.
`Cc1ncsc1-c1ccc([C@H](C)NC(=O)[C@@H]2C[C@@H](O)CN2C(=O)[C@@H](NC(=O)CCCC(=O)N2CCN(CC[C@H](CSc3ccccc3)Nc3ccc(S(=O)(=O)NC(=O)c4ccc(N5CCN(CC6=C(c7ccc(Cl)cc7)CCC(C)(C)C6)CC5)cc4)cc3S(=O)(=O)C(F)(F)F)CC2)C(C)(C)C)cc1`: in the experiment on MOLT-4, the IC50 was over 2000 nM. For the same compound, the outcome in experiment [1] was inactive. For the same compound, in experiment [2], the Activity is 82%.
Turning to `Cc1ncsc1-c1ccc([C@H](C)NC(=O)[C@@H]2C[C@@H](O)CN2C(=O)[C@@H](NC(=O)CCCCCCCN(C)CC[C@H](CSc2ccccc2)Nc2ccc(S(=O)(=O)NC(=O)c3ccc(N4CCN(CC5=C(c6ccc(Cl)cc6)CCC(C)(C)C5)CC4)cc3)cc2S(=O)(=O)C(F)(F)F)C(C)(C)C)cc1`, the IC50 with MOLT-4 was 147 nM. The outcome in experiment [1] was inactive. For the same compound, the Activity in experiment [2] was 45%.
On to `Cc1ncsc1-c1ccc([C@H](C)NC(=O)[C@@H]2C[C@@H](O)CN2C(=O)[C@@H](NC(=O)CCCCCCCCN(C)CC[C@H](CSc2ccccc2)Nc2ccc(S(=O)(=O)NC(=O)c3ccc(N4CCN(CC5=C(c6ccc(Cl)cc6)CCC(C)(C)C5)CC4)cc3)cc2S(=O)(=O)C(F)(F)F)C(C)(C)C)cc1`, for which, in the experiment on MOLT-4, the IC50 stood at 139 nM. Moreover, in experiment [1], the outcome was inactive. The Activity in experiment [2] was 49%.
For `Cc1ncsc1-c1ccc([C@H](C)NC(=O)[C@@H]2C[C@@H](O)CN2C(=O)[C@@H](NC(=O)CCCCN(C)CC[C@H](CSc2ccccc2)Nc2ccc(S(=O)(=O)NC(=O)c3ccc(N4CCN(CC5=C(c6ccc(Cl)cc6)CCC(C)(C)C5)CC4)cc3)cc2S(=O)(=O)C(F)(F)F)C(C)(C)C)cc1`, in the experiment on MOLT-4, the IC50 came to 1240 nM. Further, in experiment [1], the result was inactive. The Activity in experiment [2] worked out at 75%.
Turning to `CC1(C)CCC(c2ccc(Cl)cc2)=C(CN2CCN(c3ccc(C(=O)NS(=O)(=O)c4ccc(N[C@H](CCN5CCN(C(=O)NCCOCCOCCNc6cccc7c6C(=O)N([C@@H]6CCC(=O)NC6=O)C7=O)CC5)CSc5ccccc5)c(S(=O)(=O)C(F)(F)F)c4)cc3)CC2)C1`, the Activity in experiment [3] amounted to 27%. Moreover, the IC50 in the experiment with MOLT-4 was determined as 118 nM. In experiment [4], the outcome was inactive.
